From patent publication US8466185B2, “Methods and assays for detecting and treating hypoglycemia” (priority 2008, dated 2013)
“Also recorded” adds a separate entry of the source.

How the values were obtained:
[1] = test system: human islets and dispersed single islet cells; test: [Ca^2+]i imaging (Fura-2) of human islets and dispersed islet cells; type: cell-based; settings: for [Ca^2+]i response: 100 μM
Method: (§1) Glucose was added to give a final concentration of 3 mM. Islets or dispersed islet cells were incubated in Fura-2 AM (2 μM; 1 hour) and placed in a closed small-volume imaging chamber (Warner Instruments, Hamden, Conn.). Stimuli were applied with the bathing solution. Islets loaded with Fura-2 were excited alternatively at 340 and 380 nm with a monochromator light source (Cairn. Research Optoscan Monochromator, Cairn Research Ltd, Faversham, UK). Images were acquired with a Hamamatsu camera (Hamamatsu Corp, Japan) attached to a Zeiss Axiovert 200 microscope (Carl Zeiss, Jena, Germany). Changes in the 340/380 fluorescence emission ratio over time were analyzed in individual islets and dispersed cells using Kinetic Imaging AQM Advance software (Kinetic Imaging, N.C.). Peak changes in the fluorescence ratio constituted the response amplitude.

[2] = test system: monkey islets and dispersed single islet cells; test: [Ca^2+]i imaging (Fura-2) of monkey islets and islet cells; type: cell-based, monkey (Macacca fascicularis); settings: glutamate 100 μM
Method: as §1, with “Imaging of [Ca^2+]i was performed as described elsewhere (Cabrera et al., 2006). […] Glucose” for “Glucose”

[3] = test system: mouse islets; test: perifusion, glucagon secretion from mouse islets; type: cell-based, mouse (C57Bl/6); settings: for glucagon release / secretion: 100 μM
Method: (§2) A high-capacity, automated perifusion system was developed to dynamically measure hormone secretion from pancreatic islets. A low pulsatility peristaltic pump pushed HEPES-buffered solution (mM: 125 NaCl, 5.9 KCl, 2.56 CaCl2, 1 MgCl2, 25 HEPES, and 0.1% BSA; pH 7.4; and a perifusion rate of 100 μL/min) through a column containing 100 pancreatic islets immobilized in Bio-Gel P-4 Gel (BioRad, Hercules, Calif.). Except otherwise stated, glucose concentration was adjusted to 3 mM for all experiments. Stimuli were applied with the perifusion buffer. The perifusate was collected in an automatic fraction collector designed for a 96 well plate format. The columns containing the islets and the perifusion solutions were kept at 37° C., and the perifusate in the collecting plate was kept at <4° C. Perifusates were collected every minute. Hormone release in the perifusate was determined with the human or mouse Endocrine LINCOplex Kit following manufacturer's instructions (Linco research, St. Charles, Mo.).

[4] = Beyreuther et al., 2007; cited from earlier work
[5] = test system: C57BL/6 mice; test: in vivo responses to iGluR agonists injected i.p.; parameters: species or system mouse; settings: glutamate 30 mg/kg, AMPA 15 mg/kg, i.p.
Method: We examined in vivo responses to iGluR agonists by injecting C57BL/6 mice i.p. with either PBS (n=4), monosodium glutamate (30 mg/kg; n=7), or AMPA (15 mg/kg; n=8). To determine whether blocking iGluRs exacerbates insulin-induced hypoglycemia, we injected the AMPA/kainate iGluR antagonist NBQX (Tocris, Ellisville, Mo.) i.p. at 20 mg/kg 30 minutes before mice were treated with insulin to induce hypoglycemia.

[6] = test system: human islets; type: cell-based; settings: glutamate 100 μM
Method: Perifusion of the islets was stopped after addition of the stimulus to allow the islet secretory products to accumulate and then resumed after 10 minutes.

[7] = test system: human islets; test: in vitro perifusion, glucagon secretion from human islets; type: cell-based; settings: for glucagon release / glucagon secretion: agonist 100 μM, 3 mM glucose
Method: as §2

[8] = test system: human islets; test: in vitro perifusion, insulin release from human islets; settings: 100 μM
Method: as §2

[9] = test system: monkey islets; test: in vitro perifusion, insulin release from monkey islets; settings: 100 μM; not shown
[10] = test system: mouse islets; test: perifusion of mouse islets with β cells destroyed by streptozotocin versus intact islets; type: cell-based; settings: streptozotocin-treated versus intact islets
Method: This experiment was performed with mouse islets. Two samples were perifused in parallel (“a” and “b”). In “a” (blue curve and blue bar), but not in “b” (red curve and red bar) the β cells were selectively destroyed with streptozotocin. This absence of β cells generates type 1 diabetes-like condition in vitro. The glucagon release profile in panel “A” was obtained by using this model. […] Note that the non specific stimulus arginine is not able to differentiate a functionally impaired α cell in the absence of β cells.
At t=5 min, both samples were stimulated with 100 μM kainate for 5 min. The glucose was increased to 11 mM for 10 minutes and decreased again to 3 mM for the duration of the perifusion. At t=45 min, both samples (v) were stimulated with 5 mM Arginine. […] Kainate is a glutamate analog that is not metabolizable, and therefore a preferred agonist of the AMPA/Kainate receptors. Error bars represent the standards deviations for n=3 perifusions. Comparison were performed by an independent t-test.
For example, in some embodiments the present invention are directed to an in vitro model in which we destroy selectively the beta cells with, for example, streptozotocin, thus creating a situation that mimics type 1 diabetes. The treated islets are composed mainly of alpha cells. […] To examine if alpha cells in islets depleted of beta cells had impaired glutamate signaling, we stimulated them with kainate, an agonist for ionotropic glutamate receptors.

[11] = test system: isolated human islet cells; test: whole-cell patch clamp recordings of dispersed human islet cells; type: cell-based; settings: kainate 100 μM; holding potential −70 mV
Method: Membrane currents were measured using whole-cell patch clamp recordings of dispersed human islet cells. All recordings were amplified using an EPC10 patch-clamp amplifier and digitized and analyzed using Patchmaster software (Heka Elektronik, Lambrecht, Germany). Pipettes were pulled from borosilicate glass capillaries on a horizontal programmable puller (DMZ Universal Puller, Zeitz-Instrumente, Augsburg, Germany). Pipettes with a resistance of 5-7 MΩ were filled with a pipette solution containing (in mM): 150 NMG (N-methyl-D-Glucamine), 10 EGTA, 1 MgCl2, 2 CaCl2, 5 HEPES and 3 Mg-ATP (pH 7.15). The bath solution contained (in mM): 138 NaCl, 5.6 KCl, 1.2 MgCl2, 2.6 CaCl2, 5 HEPES and 10 TEA (pH7.4). Cells were voltage-clamped at −70 mV. Ligands (e.g. kainate) were applied using the SF-77B Perfusion Fast-Step system (Warner Instruments, Hamden, Conn.), which allows rapid change of solutions bathing a single cell or membrane patch attached to a patch electrode. […] Thus, it is most likely that cells responding to kainate in our electrophysiological experiments were α-cells.

[12] = test system: monkey islets; test: microfluorometric determination of endogenous glutamate release from islets; type: cell-based; settings: kainate 100 μM; KCl 30 mM
Method: Endogenous glutamate release from pancreatic islets was measured with the Amplex Red Glutamic Acid Assay Kit (Molecular Probes) adapted for microscopic microfluorometric detection (Akagi et al., 2003). In this assay, released glutamate is a substrate in an enzymatic chain reaction that generates the highly fluorescent product resorufin (Molecular Probes, Eugene, Oreg.). L-glutamate is oxidized by glutamate oxidase to produce α-ketoglutarate, NH4, and H2O2. Hydrogen peroxide reacts with the Amplex Red reagent in a reaction catalyzed by horseradish peroxidase to generate resorufin. Pancreatic islets were allowed to attach to a glass coverslip previously coated with poly-D-lysine. The coverslip was mounted in a closed small-volume imaging chamber (Warner Instruments) and perifused with the HEPES-buffered solution containing the stimuli. Resorufin fluorescence was excited at 510 nm, and the emission recorded at 590 nm using the same imaging system used to measure [Ca^2+]i (see above).

## N[C@@H](CCC(=O)O)C(=O)O [glutamate]
[1]
  cells responding to high glucose (11 mM) that did not respond to glutamate: 64 out of 64
  [Ca^2+]i response: elicited concentration-dependent [Ca^2+]i; responses; also recorded: increases in cytoplasmic free Ca^2+ concentration
[1]; n=4 human preparations
  glutamate-responsive cells that were glucagon-immunoreactive: 34 out of 37
[2]
  [Ca^2+]i response: increases in cytoplasmic free Ca^2+ concentration
[3]
  glucagon release / secretion: stimulated glucagon release
[3]; glutamate 100 μM
  glucagon responses to glutamate in islets from mGluR4 knockout versus control mice: undistinguishable in wild type and mGluR4KO mice
[4]
  blood-brain barrier penetration: does not penetrate the blood-brain barrier
[5]
  plasma insulin concentrations: not affected; also recorded: did not change
[5]; 30 minutes after treatment
  plasma glucagon concentrations: increased plasma glucagon concentrations
[5]; thirty minutes after injection
  plasma glucose concentrations: increased glucose levels
[6]; islets on biosensor cells
  glucagon secretion from human islets measured by [Ca^2+]i responses in biosensor cells: large [Ca^2+]i responses; also recorded: elicited glucagon secretion from human islets
[6]; no islets
  [Ca^2+]i response of biosensor cells in the absence of islets: did not respond; also recorded: No responses were seen
[7]
  glucagon release / glucagon secretion: induced glucagon responses
[7]; glutamate 1 μM-1 mM
  glucagon release: stimulated large, concentration-dependent increases in glucagon release
[8]
  insulin release: Neither kainate (100 μM), glutamate (100 μM), nor AMPA (100 μM) stimulated increases in insulin release
[9]
  insulin release: Neither kainate (100 μM), glutamate (100 μM), nor AMPA (100 μM) stimulated increases in insulin release

## C=C(C)[C@H]1CN[C@H](C(=O)O)[C@H]1CC(=O)O [kainate]
[1]
  glucagon immunoreactive cells that responded to kainate: 7 out of 9
  [Ca^2+]i response: large increases in [Ca^2+]i
[1]; [Ca^2+]i imaging experiments
  kainate responsive cells that were glucagon immunoreactive: > 75%
[1]; kainate 100 μM
  glutamate-responding cells that also responded to kainate: 12 out of 12
[1]; n=8
  insulin immunoreactive cells that responded to kainate: None
[10]; kainate 100 μM for 5 min
  reduction of amplitude of kainate-induced glucagon release in absence of β cells: 55%
[10]
  kainate potentiation of glucagon release in absence versus presence of β cells: not as effective in potentiating glucagon release; also recorded: strongly reduced glucagon responses
[3]
  glucagon release / secretion: stimulated glucagon secretion
[7]
  glucagon release / glucagon secretion: stimulated large increases in glucagon secretion; also recorded: Increases in glucagon release could also be elicited
[7]; listed as Kainate
  glucagon release / glucagon secretion: elicited strong glucagon secretion
[11]
  whole-cell inward currents: elicited inward currents
[8]
  insulin release: Neither kainate (100 μM), glutamate (100 μM), nor AMPA (100 μM) stimulated increases in insulin release
[9]
  insulin release: Neither kainate (100 μM), glutamate (100 μM), nor AMPA (100 μM) stimulated increases in insulin release
[12]
  glutamate release (resorufin fluorescence): induced significant glutamate release; also recorded: strongly released glutamate
